The assay deals with T1, SMARCA2 (Homo sapiens, UniProt P51531).
T1 construct: endogenous in cells; host or cells: HT1080 (CRISPR HiBiT knock-in clone, generated in house)
Description: SMARCA2 HiBiT degradation assay (cellular). The settings on record: table head names A549; for DC50: 6 h incubation, HiBiT-tagged SMARCA2, luminescence read-out, read-out: HiBit A549 SMARCA2 IP (nM) 6 h; for Emax: A549, 6 h incubation, Emax = amount of residual protein remaining in the cell following compound treatment. The format is cell-based.

The source of these data is US20230024096A1, “BIFUNCTIONAL COMPOUNDS FOR THE TREATMENT OF CANCER” (Hoffmann-La Roche Inc., priority 2019, published 2023).

T1 sequence (P51531 whole entry): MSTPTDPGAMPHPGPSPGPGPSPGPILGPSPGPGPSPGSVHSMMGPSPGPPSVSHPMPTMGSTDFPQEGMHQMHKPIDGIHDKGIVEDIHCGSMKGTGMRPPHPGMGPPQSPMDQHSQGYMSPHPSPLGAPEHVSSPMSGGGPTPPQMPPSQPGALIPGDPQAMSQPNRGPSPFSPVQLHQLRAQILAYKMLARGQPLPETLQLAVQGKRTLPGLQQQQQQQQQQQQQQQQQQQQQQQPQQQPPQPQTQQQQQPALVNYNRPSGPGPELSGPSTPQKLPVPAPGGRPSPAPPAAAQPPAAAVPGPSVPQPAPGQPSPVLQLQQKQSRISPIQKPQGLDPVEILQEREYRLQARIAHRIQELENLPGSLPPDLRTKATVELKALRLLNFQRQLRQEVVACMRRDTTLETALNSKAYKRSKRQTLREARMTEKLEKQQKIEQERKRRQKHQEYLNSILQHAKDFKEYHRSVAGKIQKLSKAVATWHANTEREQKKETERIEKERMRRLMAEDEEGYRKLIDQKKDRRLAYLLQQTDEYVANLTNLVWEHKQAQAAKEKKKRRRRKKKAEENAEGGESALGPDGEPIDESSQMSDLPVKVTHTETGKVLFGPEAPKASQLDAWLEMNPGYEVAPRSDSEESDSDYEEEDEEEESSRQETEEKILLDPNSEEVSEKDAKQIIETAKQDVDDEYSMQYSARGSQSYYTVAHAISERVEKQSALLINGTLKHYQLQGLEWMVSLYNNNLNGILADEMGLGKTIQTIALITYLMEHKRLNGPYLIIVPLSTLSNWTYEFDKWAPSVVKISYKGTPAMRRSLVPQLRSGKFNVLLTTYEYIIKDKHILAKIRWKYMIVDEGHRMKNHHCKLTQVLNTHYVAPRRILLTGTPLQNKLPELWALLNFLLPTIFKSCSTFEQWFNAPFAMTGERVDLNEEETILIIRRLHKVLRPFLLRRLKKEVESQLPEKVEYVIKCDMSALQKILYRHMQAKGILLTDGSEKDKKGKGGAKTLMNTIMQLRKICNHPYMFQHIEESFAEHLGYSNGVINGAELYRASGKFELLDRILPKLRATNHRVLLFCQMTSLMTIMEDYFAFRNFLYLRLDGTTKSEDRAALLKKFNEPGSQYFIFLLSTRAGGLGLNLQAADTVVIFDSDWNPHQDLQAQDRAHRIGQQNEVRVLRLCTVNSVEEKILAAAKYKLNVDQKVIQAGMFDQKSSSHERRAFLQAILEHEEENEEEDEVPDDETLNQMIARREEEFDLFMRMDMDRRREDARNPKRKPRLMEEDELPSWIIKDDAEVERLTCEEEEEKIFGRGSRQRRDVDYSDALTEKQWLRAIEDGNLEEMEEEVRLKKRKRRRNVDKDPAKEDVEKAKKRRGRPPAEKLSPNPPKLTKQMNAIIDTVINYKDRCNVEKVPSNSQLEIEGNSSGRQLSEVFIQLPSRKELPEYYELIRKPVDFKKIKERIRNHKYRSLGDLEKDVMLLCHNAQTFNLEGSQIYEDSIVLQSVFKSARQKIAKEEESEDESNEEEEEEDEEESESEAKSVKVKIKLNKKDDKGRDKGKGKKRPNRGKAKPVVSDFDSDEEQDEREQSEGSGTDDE

`Nc1nnc(-c2ccccc2O)cc1N1CCC(CNC(=O)COc2cccc3c2C(=O)N(C2CCC(=O)NC2=O)C3=O)(c2ccccc2)CC1` (stereo not drawn) [Example 72, N-[[1-[3-amino-6-(2-hydroxyphenyl)pyridazin-4-yl]-4-phenyl-4-piperidyl]methyl]-2-[2-(2,6-dioxo-3-piperidyl)-1,3-dioxo-isoindolin-4-yl]oxy-acetamide]: the DC50 was found to be 273 nM and the Emax is 62%.

Consider `Nc1nnc(-c2ccccc2O)cc1N1CC(Oc2ccc(CN3CCN(C(=O)CCCCCCCCCNc4cccc5c4C(=O)N(C4CCC(=O)NC4=O)C5=O)CC3)cc2)C1` (stereo not drawn) [Example 68, 4-[[10-[4-[[4-[1-[3-amino-6-(2-hydroxyphenyl)pyridazin-4-yl]azetidin-3-yl]oxyphenyl]methyl]piperazin-1-yl]-10-oxo-decyl]amino]-2-(2,6-dioxo-3-piperidyl)isoindoline-1,3-dione], for which the DC50 worked out at 201 nM and the Emax stood at 55%.

As for `Nc1nnc(-c2ccccc2O)cc1N1CCC(C(=O)N2CC3(CN(C(=O)CCCN4CCC(c5ccc(OC6CCC(=O)NC6=O)cc5)CC4)C3)C2)(c2ccccc2)CC1` (stereo not drawn) [Example 123, 3-(4-(1-(4-(6-(1-(3-amino-6-(2-hydroxyphenyl)pyridazin-4-yl)-4-phenylpiperidine-4-carbonyl)-2,6-diazaspiro[3.3]heptan-2-yl)-4-oxobutyl)piperidin-4-yl)phenoxy)piperidine-2,6-dione], the DC50 amounted to 75 nM and the maximal response (Emax) stood at 34%.

As to `Nc1nnc(-c2ccccc2O)cc1N1CCC(C(=O)N2CCC3(CC2)CN(C(=O)COc2ccc4c(c2)C(=O)N(C2CCC(=O)NC2=O)C4=O)CCO3)(c2ccccc2)CC1` (stereo not drawn) [Example 166, 5-(2-(9-(1-(3-amino-6-(2-hydroxyphenyl)pyridazin-4-yl)-4-phenylpiperidine-4-carbonyl)-1-oxa-4,9-diazaspiro[5.5]undecan-4-yl)-2-oxoethoxy)-2-(2,6-dioxopiperidin-3-yl)isoindoline-1,3-dione], the DC50 is 607 nM and the maximal effect (Emax) is 53%.

For the molecule `Nc1nnc(-c2ccccc2O)cc1N1CCC(CNC(=O)COc2ccc3c(c2)C(=O)N(C2CCC(=O)NC2=O)C3=O)(c2ccccc2)CC1` (stereo not drawn) [Example 73, N-((1-(3-amino-6-(2-hydroxyphenyl)pyridazin-4-yl)-4-phenylpiperidin-4-yl)methyl)-2-((2-(2,6-dioxopiperidin-3-yl)-1,3-dioxoisoindolin-5-yl)oxy)acetamide], the DC50 is 114 nM and the Emax is 49%.

As to `Nc1nnc(-c2ccccc2O)cc1N1CCC(CNC(=O)C2CCN(c3cccc4c3C(=O)N(C3CCC(=O)NC3=O)C4=O)CC2)(c2ccccc2)CC1` (stereo not drawn) [Example 71, N-[[1-[3-amino-6-(2-hydroxyphenyl)pyridazin-4-yl]-4-phenyl-4-piperidyl]methyl]-1-[2-(2,6-dioxo-3-piperidyl)-1,3-dioxo-isoindolin-4-yl]piperidine-4-carboxamide], the DC50 came out at 326 nM and the Emax came out at 46%.

Regarding `Nc1nnc(-c2ccccc2O)cc1N1CC(Oc2cccc(CN3CCN(C(=O)CN4CCC(c5ccc(NC6CCC(=O)NC6=O)cc5)CC4)CC3)c2)C1` (racemic) [Example 156, rac-3-[4-[1-[2-[4-[[3-[1-[3-amino-6-(2-hydroxyphenyl)pyridazin-4-yl]azetidin-3-yl]oxyphenyl]methyl]piperazin-1-yl]-2-oxo-ethyl]-4-piperidyl]anilino]piperidine-2,6-dione], the DC50 is 3 nM and the Emax came to 17%.

`Nc1nnc(-c2ccccc2O)cc1OC1CCCN(c2ccc(N3CCN(C(=O)CCCCCCCC(=O)N4CC[C@H](Nc5cccc6c5C(=O)N(C5CCC(=O)NC5=O)C6=O)C4)CC3)cc2)C1` (mixture of isomers) [Example 45, 2-(2,6-dioxo-3-piperidyl)-4-[[rac-(3S)-1-[9-[4-[4-[3-[3-amino-6-(2-hydroxyphenyl)pyridazin-4-yl]oxy-1-piperidyl]phenyl]piperazin-1-yl]-9-oxo-nonanoyl]pyrrolidin-3-yl]amino]isoindoline-1,3-dione]: the DC50 came to 627 nM and the maximum response (Emax) was found to be 58%.

Consider `Nc1nnc(-c2ccccc2O)cc1N1CCC(C(=O)N2CC3(CN(C(=O)C4CCN(c5ccc6c(c5)C(=O)N(C5CCC(=O)NC5=O)C6=O)CC4)C3)C2)(c2ccccc2)CC1` (stereo not drawn) [Example 121, 5-(4-(6-(1-(3-amino-6-(2-hydroxyphenyl)pyridazin-4-yl)-4-phenylpiperidine-4-carbonyl)-2,6-diazaspiro[3.3]heptane-2-carbonyl)piperidin-1-yl)-2-(2,6-dioxopiperidin-3-yl)isoindoline-1,3-dione], for which the DC50 was 47 nM and the maximal response (Emax) worked out at 26%.

Turning to `Nc1nnc(-c2ccccc2O)cc1N1CCC(C(=O)NCC2CCN(C(=O)CN3CCC(c4ccc(OC5CCC(=O)NC5=O)cc4)CC3)CC2)(c2ccccc2)CC1` (stereo not drawn) [Example 101, 1-(3-amino-6-(2-hydroxyphenyl)pyridazin-4-yl)-N-((1-(2-(4-(4-((2,6-dioxopiperidin-3-yl)oxy)phenyl)piperidin-1-yl)acetyl)piperidin-4-yl)methyl)-4-phenylpiperidine-4-carboxamide], the DC50 worked out at 102 nM and the Emax is 28%.

As to `Nc1nnc(-c2ccccc2O)cc1N1CCC(NC(=O)CC2CCN(C(=O)CCCN3CCC(c4ccc(NC5CCC(=O)NC5=O)cc4)CC3)CC2)(c2ccccc2)CC1` (stereo not drawn) [Example 185, N-[1-[3-amino-6-(2-hydroxyphenyl)pyridazin-4-yl]-4-phenyl-4-piperidyl]-2-[1-[4-[4-[4-[(2,6-dioxo-3-piperidyl)amino]phenyl]-1-piperidyl]butanoyl]-4-piperidyl]acetamide], the DC50 stood at 241 nM and the maximal response (Emax) came to 62%.

As for `Nc1nnc(-c2ccccc2O)cc1N1CCN(c2cccc(CN3CCN(C(=O)CCC4CCN(c5ccc6c(c5)C(=O)N(C5CCC(=O)NC5=O)C6=O)CC4)CC3)c2)C2(CC2)C1` (stereo not drawn) [Example 128, 5-(4-(3-(4-(3-(7-(3-amino-6-(2-hydroxyphenyl)pyridazin-4-yl)-4,7-diazaspiro[2.5]octan-4-yl)benzyl)piperazin-1-yl)-3-oxopropyl)piperidin-1-yl)-2-(2,6-dioxopiperidin-3-yl)isoindoline-1,3-dione], the DC50 came to 18 nM and the Emax came to 37%.

As for `Nc1nnc(-c2ccccc2O)cc1N1CC(Oc2cccc(N3CCN(C(=O)CCCCCCCCCNc4cccc5c4C(=O)N(C4CCC(=O)NC4=O)C5=O)CC3)c2)C1` (stereo not drawn) [Example 39, 4-[[10-[4-[3-[1-[3-amino-6-(2-hydroxyphenyl)pyridazin-4-yl]azetidin-3-yl]oxyphenyl]piperazin-1-yl]-10-oxo-decyl]amino]-2-(2,6-dioxo-3-piperidyl)isoindoline-1,3-dione], the DC50 worked out at 718 nM and the Emax was found to be 63%.

With `Nc1nnc(-c2ccccc2O)cc1N1CC2CCC(C1)N2c1cccc(OCCN2CCN(C(=O)C3CCN(c4ccc5c(c4)C(=O)N(C4CCC(=O)NC4=O)C5=O)CC3)CC2)c1` (racemic) [Example 142, rac-5-[4-[4-[2-[3-[3-[3-amino-6-(2-hydroxyphenyl)pyridazin-4-yl]-3,8-diazabicyclo[3.2.1]octan-8-yl]phenoxy]ethyl]piperazine-1-carbonyl]-1-piperidyl]-2-(2,6-dioxo-3-piperidyl)isoindoline-1,3-dione], the DC50 came out at 2 nM and the Emax stood at 14%.

`Nc1nnc(-c2ccccc2O)cc1N1CC2CCC(C1)N2c1cccc(OCCN2CCN(C(=O)N3C[C@@H]4CN(c5ccc6c(c5)C(=O)N(C5CCC(=O)NC5=O)C6=O)C[C@@H]4C3)CC2)c1` (relative stereo) [Example 157, rac-2-(2,6-dioxo-3-piperidyl)-5-[rel-(3aS,6aR)-5-[4-[2-[3-[3-[3-amino-6-(2-hydroxyphenyl)pyridazin-4-yl]-3,8-diazabicyclo[3.2.1]octan-8-yl]phenoxy]ethyl]piperazine-1-carbonyl]-1,3,3a,4,6,6a-hexahydropyrrolo[3,4-c]pyrrol-2-yl]isoindoline-1,3-dione]: the DC50 stood at 108 nM and the Emax came out at 68%.

Consider `Nc1nnc(-c2ccccc2O)cc1N1CCC(C(=O)N2CCC(C(=O)N3CCN(Cc4ccc5c(c4)C(=O)N(C4CCC(=O)NC4=O)C5=O)CC3)CC2)(c2ccccc2)CC1` (stereo not drawn) [Example 174, 5-((4-(1-(1-(3-amino-6-(2-hydroxyphenyl)pyridazin-4-yl)-4-phenylpiperidine-4-carbonyl)piperidine-4-carbonyl)piperazin-1-yl)methyl)-2-(2,6-dioxopiperidin-3-yl)isoindoline-1,3-dione], for which the DC50 stood at 123 nM and the Emax stood at 54%.

In the case of `CN(C(=O)C1CCN(Cc2cccc(N3C4CCC3CN(c3cc(-c5ccccc5O)nnc3N)C4)c2)CC1)C1CCN(c2ccc3c(c2)C(=O)N(C2CCC(=O)NC2=O)C3=O)CC1` (racemic) [Example 118, rac-1-[[3-[3-[3-amino-6-(2-hydroxyphenyl)pyridazin-4-yl]-3,8-diazabicyclo[3.2.1]octan-8-yl]phenyl]methyl]-N-[1-[2-(2,6-dioxo-3-piperidyl)-1,3-dioxo-isoindolin-5-yl]-4-piperidyl]-N-methyl-piperidine-4-carboxamide], the DC50 is 11 nM and the Emax turned out to be 26%.

Take `CC(Oc1cccc2c1C(=O)N(C1CCC(=O)NC1=O)C2=O)c1cn(CCCN2CCN(C(=O)CCN3CCN(c4ccc(N5CCC[C@H](Oc6cc(-c7ccccc7O)nnc6N)C5)cc4)CC3)CC2)nn1` (mixture of isomers) [Example 200, 2-(2,6-dioxo-3-piperidyl)-4-[1-[1-[3-[4-[3-[4-[4-[rac-(3S)-3-[3-amino-6-(2-hydroxyphenyl)pyridazin-4-yl]oxy-1-piperidyl]phenyl]piperazin-1-yl]propanoyl]piperazin-1-yl]propyl]triazol-4-yl]ethoxy]isoindoline-1,3-dione]: the DC50 was 104 nM and the maximal response (Emax) was 45%.
